Data as given in patent US7534898B2, “Process for producing monatin or salt thereof” (Ajinomoto Co., Inc., priority 2004, dated 2009).

Legend:
[1] = cited from earlier work; for intensity as a sweetener (strength of sweetness): comparison among the four optical isomers of monatin, Patent Document 5
[2] = solubility in ethanol (crystallization with ethanol as poor solvent); format: physicochemical; conditions: compared with (2R,4R) monatin
Excerpt: It is also possible to efficiently separate the steric isomers by utilizing the difference in solubility of (2S,4R) monatin and (2R,4R) monatin or of (2R,4S) monatin and (2S,4S) monatin in ethanol. […] Therefore, before crystallization of (2R,4R) monatin (salt), (2S,4R) monatin is firstly crystallized and the resulting crystals are removed. […] In case crystals of (2S,4R) monatin are previously removed by means of crystallization, it is possible to efficiently remove (2S,4R) monatin from the reaction solution when the crystallizing temperature is set at as high as about 70 to 80° C. and the crystals prepared by the crystallization are preferably filtered when they are still at high temperature. In addition, the crystals of (2R,4R) monatin (salt) prepared may be recrystallized the same as above for making the purity higher. The above is also the same in the case of (2R,4S) monatin and (2S,4S) monatin.

Compound	intensity as a sweetener (strength of sweetness) [1]	solubility in ethanol [2]	sweet taste relative to sucrose ([1]; compared with sucrose, Patent Document 1)
N[C@H](C[C@@](O)(Cc1c[nH]c2ccccc12)C(=O)O)C(=O)O (stereo in doubt) [(2R,4R) monatin, 4-hydroxy-4-(3-indolylmethyl)-2-aminoglutaric acid]	far better in terms of intensity as a sweetener	–	–
N[C@@H](C[C@@](O)(Cc1c[nH]c2ccccc12)C(=O)O)C(=O)O (stereo in doubt) [(2R,4S) monatin, 4-hydroxy-4-(3-indolylmethyl)-2-aminoglutaric acid]	far better in terms of intensity as a sweetener	–	–
N[C@@H](C[C@@](O)(Cc1c[nH]c2ccccc12)C(=O)O)C(=O)O (stereo in doubt) [(2S,4R) monatin, 4-hydroxy-4-(3-indolylmethyl)-2-aminoglutaric acid]	lower strength of sweetness	low as compared with (2R,4R) monatin	–
N[C@@H](C[C@@](O)(Cc1c[nH]c2ccccc12)C(=O)O)C(=O)O (stereo in doubt) [(2S,4S) monatin, 4-hydroxy-4-(3-indolylmethyl)-2-aminoglutaric acid]	lower strength of sweetness	–	several hundred times as sweet as sucrose
